Results on 34 substances are retold here after patent US10517889B2, “Modulators of SMAD7 expression” (Ionis Pharmaceuticals, Inc., priority 2017, dated 2019).

Strand notation (5' to 3'): a small letter for the sugar, then the base; units joined by * are phosphorothioate-linked, units joined directly phosphodiester-linked; [ ] holds rarer units or linkages, { } end groups; capitals alone tell only the bases. k = constrained ethyl (cEt); [5mC] = 5-methylcytosine; d = 2'-deoxy (DNA)

Broadly, the % Inhibition is the relative decrease from the control value, in per cent. A lower % Inhibition goes with little suppression.

For one data set, the system named is human SMAD7 mRNA. In words: Antisense inhibition of human SMAD7 mRNA expression in Hep3B cells by 3-10-3 cEt gapmers, 10,000 nM, electroporation (Example 2). The format is cell-based. As to conditions: Hep3B cells, electroporation with 10,000 nM antisense oligonucleotide, approximately 24 hours, SMAD7 mRNA by RT-PCR (RTS5062), relative to untreated control cells. Put shortly: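 Percent inhibition of SMAD7 mRNA, relative to untreated cells, after ~24 h exposure of electroporated Hep3B cells to 10,000 nM cEt gapmer; levels by qRT-PCR, corrected for total RNA.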
“798678 (antisense k[5mC]*kG*k[5mC]*dA*d[5mC]*dA*d[5mC]*d[5mC]*dA*dT*dG*dA*dA*kG*kA*kA) [compound 798678]”: the “% Inhibition” value turned out to be 45%.

For “798679 (antisense k[5mC]*kT*k[5mC]*d[5mC]*dG*d[5mC]*dA*d[5mC]*dA*d[5mC]*d[5mC]*dA*dT*kG*kA*kA) [compound 798679]”, the “% Inhibition” value came to 32%.

In the case of “798680 (antisense k[5mC]*kA*kT*dG*dA*d[5mC]*d[5mC]*dT*d[5mC]*d[5mC]*dG*d[5mC]*dA*k[5mC]*kA*k[5mC]) [compound 798680]”, the “% Inhibition” value came out at 31%.

“798681 (antisense kG*kA*kA*d[5mC]*dA*dT*dG*dA*d[5mC]*d[5mC]*dT*d[5mC]*d[5mC]*kG*k[5mC]*kA) [compound 798681]”: the “% Inhibition” value is on record as 29%. Consider “798682 (antisense kG*k[5mC]*kT*dA*dA*dG*dG*dA*dG*d[5mC]*dG*dA*dA*k[5mC]*kA*kT) [compound 798682]”, for which the “% Inhibition” value is recorded as 60%. Same read-out and setting: as for “798683 (antisense kG*k[5mC]*k[5mC]*dT*dG*d[5mC]*dT*dA*dA*dG*dG*dA*dG*k[5mC]*kG*kA) [compound 798683]”, the figure is 51%; as for “798684 (antisense k[5mC]*kG*kT*dT*dT*dG*d[5mC]*d[5mC]*dT*dG*d[5mC]*dT*dA*kA*kG*kG) [compound 798684]”, 51%. The same measure, in the same setting: as for “798693 (antisense kG*k[5mC]*k[5mC]*dG*dG*dG*d[5mC]*dG*d[5mC]*dA*d[5mC]*dG*dG*k[5mC]*kT*k[5mC]) [compound 798693]”, the figure is 0%. Same read-out and setting: as for “798694 (antisense kG*kT*k[5mC]*d[5mC]*dT*d[5mC]*dG*d[5mC]*d[5mC]*dG*d[5mC]*d[5mC]*dG*kG*kG*k[5mC]) [compound 798694]”, the figure is 0%; as for “798695 (antisense kT*kG*k[5mC]*dG*d[5mC]*d[5mC]*d[5mC]*dT*d[5mC]*d[5mC]*dT*d[5mC]*d[5mC]*kT*k[5mC]*kG) [compound 798695]”, 35%.

Take “798697 (antisense kA*k[5mC]*k[5mC]*dT*d[5mC]*d[5mC]*d[5mC]*d[5mC]*d[5mC]*dT*dG*d[5mC]*dG*k[5mC]*k[5mC]*k[5mC]) [compound 798697]”: the “% Inhibition” value is given as 23%. In the case of “798698 (antisense kA*kG*k[5mC]*dT*d[5mC]*dG*d[5mC]*d[5mC]*dT*d[5mC]*d[5mC]*dT*d[5mC]*k[5mC]*kT*k[5mC]) [compound 798698]”, the “% Inhibition” value stood at 57%. On the same count and under the same terms, with “798699 (antisense k[5mC]*kG*k[5mC]*dA*dG*d[5mC]*dT*d[5mC]*dG*d[5mC]*d[5mC]*dT*d[5mC]*k[5mC]*kT*k[5mC]) [compound 798699]” the figure was 51%; with “798700 (antisense k[5mC]*k[5mC]*k[5mC]*d[5mC]*dG*d[5mC]*dA*dG*d[5mC]*dT*d[5mC]*dG*d[5mC]*k[5mC]*kT*k[5mC]) [compound 798700]”, 52%.

For the substance “798701 (antisense k[5mC]*kT*kT*d[5mC]*dT*d[5mC]*d[5mC]*d[5mC]*d[5mC]*dG*d[5mC]*dA*dG*k[5mC]*kT*k[5mC]) [compound 798701]”, the “% Inhibition” value is given as 23%.

For “798702 (antisense k[5mC]*k[5mC]*k[5mC]*d[5mC]*dT*dT*d[5mC]*dT*d[5mC]*d[5mC]*d[5mC]*d[5mC]*dG*k[5mC]*kA*kG) [compound 798702]”, the “% Inhibition” value is given as 45%.

Still in this data set, the particulars now being: Hep3B cells, electroporation with 10,000 nM antisense oligonucleotide, approximately 24 hours, primer probe set RTS5062, relative to untreated control cells.
“798672 (antisense kG*kG*k[5mC]*dA*dG*dG*dA*dG*d[5mC]*dG*dG*d[5mC]*dG*kG*k[5mC]*kG) [compound 798672]”: the “% inhibition of SMAD7 mRNA expression” value turned out to be 6%. The same measure, in the same setting: as for “798673 (antisense kG*kG*k[5mC]*d[5mC]*d[5mC]*dG*dG*dG*d[5mC]*dA*dG*dG*dA*kG*k[5mC]*kG) [compound 798673]”, the figure is 15%; as for “798674 (antisense k[5mC]*kA*kG*dG*d[5mC]*dG*dA*d[5mC]*dA*dG*d[5mC]*dA*dG*k[5mC]*kA*kG) [compound 798674]”, 39%.

As for “798675 (antisense k[5mC]*kA*kG*dG*d[5mC]*dG*d[5mC]*dA*dG*dG*d[5mC]*dG*dA*k[5mC]*kA*kG) [compound 798675]”, the “% inhibition of SMAD7 mRNA expression” value was found to be 51%. With “798676 (antisense k[5mC]*k[5mC]*kA*dT*dG*dA*dA*dG*dA*dA*dG*dT*d[5mC]*kG*kG*kG) [compound 798676]”, the “% inhibition of SMAD7 mRNA expression” value came out at 21%.

Consider “798677 (antisense kA*k[5mC]*kA*d[5mC]*d[5mC]*dA*dT*dG*dA*dA*dG*dA*dA*kG*kT*k[5mC]) [compound 798677]”, for which the “% inhibition of SMAD7 mRNA expression” value came to 36%. The same measure, in the same setting: as for “798685 (antisense kG*kA*kG*dG*d[5mC]*dG*dA*dG*dG*dA*dG*dA*dA*kA*kA*kG) [compound 798685]”, the figure is 58%. Same read-out and setting: as for “798688 (antisense kG*kT*k[5mC]*d[5mC]*dT*dG*dA*dA*d[5mC]*dA*dT*dG*d[5mC]*kG*kG*kG) [compound 798688]”, the figure is 68%; as for “798689 (antisense kG*k[5mC]*k[5mC]*dG*dG*dA*d[5mC]*dG*dA*dG*d[5mC]*dG*d[5mC]*kA*kG*kA) [compound 798689]”, 33%; as for “798690 (antisense kG*kG*k[5mC]*dT*d[5mC]*d[5mC]*dT*d[5mC]*d[5mC]*dA*dG*dA*dG*kA*k[5mC]*kG) [compound 798690]”, 29%. Same read-out and setting: as for “798691 (antisense k[5mC]*kG*k[5mC]*dA*d[5mC]*dG*dG*d[5mC]*dT*d[5mC]*d[5mC]*dT*d[5mC]*k[5mC]*kA*kG) [compound 798691]”, the figure is 42%. Take “798692 (antisense kG*kG*kG*d[5mC]*dG*d[5mC]*dA*d[5mC]*dG*dG*d[5mC]*dT*d[5mC]*k[5mC]*kT*k[5mC]) [compound 798692]”: the “% inhibition of SMAD7 mRNA expression” value is listed as 48%. Take “798703 (antisense kG*kT*k[5mC]*d[5mC]*dG*dT*d[5mC]*dG*d[5mC]*d[5mC]*d[5mC]*d[5mC]*dT*kT*k[5mC]*kT) [compound 798703]”: the “% inhibition of SMAD7 mRNA expression” value was 68%. Regarding “798704 (antisense k[5mC]*kT*kG*dT*d[5mC]*d[5mC]*dG*dT*d[5mC]*dG*d[5mC]*d[5mC]*d[5mC]*k[5mC]*kT*kT) [compound 798704]”, the “% inhibition of SMAD7 mRNA expression” value stood at 61%. As for “798705 (antisense kG*kG*k[5mC]*dT*dG*dT*d[5mC]*d[5mC]*dG*dT*d[5mC]*dG*d[5mC]*k[5mC]*k[5mC]*k[5mC]) [compound 798705]”, the “% inhibition of SMAD7 mRNA expression” value turned out to be 41%. Consider “798706 (antisense k[5mC]*kG*kG*d[5mC]*dT*dG*dT*d[5mC]*d[5mC]*dG*dT*d[5mC]*dG*k[5mC]*k[5mC]*k[5mC]) [compound 798706]”, for which the “% inhibition of SMAD7 mRNA expression” value came out at 1%.

With “798707 (antisense kG*k[5mC]*kT*d[5mC]*dG*dG*d[5mC]*dT*dG*dT*d[5mC]*d[5mC]*dG*kT*k[5mC]*kG) [compound 798707]”, the “% inhibition of SMAD7 mRNA expression” value is recorded as 74%. Same read-out and setting: with “798708 (antisense k[5mC]*kG*k[5mC]*dT*d[5mC]*dG*dG*d[5mC]*dT*dG*dT*d[5mC]*d[5mC]*kG*kT*k[5mC]) [compound 798708]” the figure was 45%.
